Results on ten compounds are retold here after patent publication US11166899B2, “Composition for external application containing a ceramide, a derivative thereof and an extract of Hibisci cortex” (AMOREPACIFIC CORPORATION, priority 2017, dated 2021).

One assay deals with T1, PPARα (Homo sapiens, UniProt Q07869).
T1 construct: expressed in transfected cells; host or cells: HaCaT (human keratinocyte cell line), transiently transfected
T1 sequence (Q07869 1-468): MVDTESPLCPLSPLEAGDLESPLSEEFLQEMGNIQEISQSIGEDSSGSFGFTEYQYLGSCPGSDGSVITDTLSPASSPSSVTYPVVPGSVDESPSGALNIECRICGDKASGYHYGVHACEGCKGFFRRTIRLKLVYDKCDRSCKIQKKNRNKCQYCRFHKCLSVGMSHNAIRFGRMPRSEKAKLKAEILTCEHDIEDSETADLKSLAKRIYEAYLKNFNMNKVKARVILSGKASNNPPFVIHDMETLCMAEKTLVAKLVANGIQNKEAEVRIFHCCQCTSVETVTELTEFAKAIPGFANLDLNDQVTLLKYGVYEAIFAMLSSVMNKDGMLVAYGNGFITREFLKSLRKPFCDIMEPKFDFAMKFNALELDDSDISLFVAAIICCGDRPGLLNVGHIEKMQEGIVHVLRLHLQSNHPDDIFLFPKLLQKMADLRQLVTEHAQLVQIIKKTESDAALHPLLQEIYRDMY
Kind of assay: PPARα activation of single ceramide derivatives, PPRE-luciferase reporter in transfected HaCaT cells (Test Example 1). Format: cell-based. The settings on record: 10 ppm, 24 hours, HaCaT transfected with PPRE reporter and PPARα plasmids; DMSO control = 100. The text has this: HaCaT, which is a human keratinocyte cell line, was subcultured in DMEM medium containing 10% fetal bovine serum, which is a phenol red-free medium, in order to eliminate the effect caused by the phenol red's estrogen. The following plasmids were used: a plasmid having PPARα, PPARβ/δ and PPARγ genes downstream of a universal promoter which is expressed in general culture conditions; a plasmid having a PPARs response element (“PPRE”) as a promoter, which is activated by binding with ligand-bound PPARs, and a firefly luciferase gene serving as a reporter downstream of the promoter; and a reference plasmid having a β-galactosidase gene bound to a universal promoter.
HaCaT cells were seeded into a 24-well plate at a density of 5×10^4 cells/well, cultured for 24 hours, and then transiently transfected with the plasmid genes. After 24 hours of culture, the cells were washed with phosphate buffered saline (PBS), and then treated with the compounds prepared in Reference Examples 2-1 to 2-4, and Reference Examples 3-11 to 3-15 at a concentration of 10 ppm. As a positive control group, the cells were treated with a previously-known PPARs ligand (PPARα ligand Wy-14643) at a concentration of 10 μM. As a negative control group, a group treated with DMSO used to dissolve the samples was used. After 24 hours of culture, the cells were washed with PBS, harvested, and measured for luciferase activity.
Results obtained by transfecting the HaCaT cell line with the PPRE promoter reporter plasmid and the PPARα expression plasmid, followed by treating the transfected cells with drugs, and measuring the luciferase activity of the cells
As to `CCCCCCCCCCCCCCCC(=O)N(CCO)CC(O)CN(CCO)C(=O)CCCCCCCCCCCCCCC` [Reference Example 2-1, 1,3-bis(N-(2-hydroxyethyl)-palmitoylamino)-2-hydroxypropane], the “Relative to Control Group (%) (luciferase activity)” value (from here on “Relative to Control Group (%)”) is 263%.

With `CCCCCCCCCCCC(=O)N(CCO)CC(O)CN(CCO)C(=O)CCCCCCCCCCC` [Reference Example 2-2, 1,3-Bis(N-(2-Hydroxyethyl)-Lauroylamino)-2-Hydroxypropane], the “Relative to Control Group (%)” value is 270%.

For the compound `CCCCCCCC/C=C\CCCCCCCC(=O)N(CCO)CC(O)CN(CCO)C(=O)CCCCCCC/C=C\CCCCCCCC` [Reference Example 2-3, 1,3-bis(N-(2-hydroxyethyl)-oleoylamino)-2-hydroxypropane], the “Relative to Control Group (%)” value is recorded as 255%.

On to `CCCCCCCCCCCCCCCC(=O)N(CCO)CC(O)CNCCO` (stereo not shown) [Reference Example 2-4, N,N′-bis(2-hydroxyethyl)-N-palmitoyl-N′-1,3-diamino-2-hydroxypropane], for which the “Relative to Control Group (%)” value is 260%.

As for `CCCCCCCCCCCCCCCCN(CC(C)OP(=O)([O-])[O-])C(=O)CCCCCCCCCCCCCCC.[Na+].[Na+]` (stereo not shown) [Reference Example 3-11, (N-hexadecyl-N-palmitoyl)-1-aminopropane-2-sodium phosphate], the “Relative to Control Group (%)” value turned out to be 272%.

In the case of `CCCCCCCCCCCCCCCCN(CC(C)(C)OP(=O)([O-])[O-])C(=O)CCCCCCCCCCCCCCC.[Na+].[Na+]` [Reference Example 3-12, (N-Hexadecyl-N-Palmitoyl)-1-Amino-2-Methylpropane-2-Sodium Phosphate], the “Relative to Control Group (%)” value is given as 270%.

For `CCCCCCCCCCCCCCCCN(CCOCCOP(=O)([O-])O)C(=O)CCCCCCCCCCCCCCC.[Na+]` [Reference Example 3-13, (N-Hexadecyl-N-Palmitoyl)-1-Amino-2-Ethoxyethane-2-Sodium Phosphate], the “Relative to Control Group (%)” value turned out to be 259%.

As to `CCCCCCCC/C=C\CCCCCCCCN(CC(C)OS(=O)(=O)[O-])C(=O)CCCCCCCCCCCCCCC.[Na+]` (stereo not shown) [Reference Example 3-14, (N-oleyl-N-palmitoyl)-1-aminopropane-2-sodium sulfate], the “Relative to Control Group (%)” value amounted to 278%.

`CCCCCCCC/C=C\CCCCCCCCN(CC(C)(C)OS(=O)(=O)[O-])C(=O)CCCCCCCCCCCCCCC.[Na+]` [Reference Example 3-15, (N-Oleyl-N-Palmitoyl)-1-Amino-2-Methylpropane-2-Sodium Sulfate]: the “Relative to Control Group (%)” value is recorded as 269%.

Still in this assay, the particulars now being: positive control, 10 μM, 24 hours, HaCaT; DMSO control = 100.
Take `Cc1cccc(Nc2cc(Cl)nc(SCC(=O)O)n2)c1C` [Wy-14643, reference compound]: the “Relative to Control Group (%)” value was found to be 291%.
